Reference: PMC6159918 (Peptides, 2018)
Like-named read-outs stand apart in the source and are kept apart here.

Key:
[1] = molecular target: T1, human BRS-3-receptor (Homo sapiens, UniProt P32247); assay: [3H]-inositol phosphates; assay type: cell-based; settings: for EC50: EC50, release of [3H]IP; for [3H]IP (Exp/control) / [3H]IP (DPM): MK-5046 10 nM
T1 sequence (P32247 1-399): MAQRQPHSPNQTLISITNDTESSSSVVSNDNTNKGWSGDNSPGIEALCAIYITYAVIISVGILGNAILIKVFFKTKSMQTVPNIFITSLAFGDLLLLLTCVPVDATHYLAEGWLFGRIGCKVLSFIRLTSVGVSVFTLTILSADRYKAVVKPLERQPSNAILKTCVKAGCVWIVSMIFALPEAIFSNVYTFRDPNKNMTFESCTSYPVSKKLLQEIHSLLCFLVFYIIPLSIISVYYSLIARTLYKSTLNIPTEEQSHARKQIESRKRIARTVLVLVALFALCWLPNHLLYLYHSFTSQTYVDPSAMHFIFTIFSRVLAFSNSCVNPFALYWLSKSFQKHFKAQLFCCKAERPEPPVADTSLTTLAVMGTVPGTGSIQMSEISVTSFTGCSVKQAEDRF

[2] = molecular target: T1, human BRS-3-receptor; assay: Cytosolic Ca2+; assay type: cell-based; settings: MK-5046 10 nM
[3] = molecular target: T1, human BRS-3-receptor; assay: p42/44 MAPK phosphorylation; assay type: cell-based; settings: for EC50: EC50, p42/44 phosphorylation; for P-p42/44 (Exp/control): MK-5046 10 nM, 3 min
[4] = tested on: human lung-cancer cells; assay: cells; assay type: cell-based; settings: for EC50: Homo sapiens; for [3H]-Thymidine Incorporation (Exp/control): 24 h serum-free
[5] = tested on: BRS-3/Balb cells; settings: 24 h serum-free, Balb-3T3 BRS-3-transfected

## O[C@@](Cc1nc(CC2(C(F)(F)F)CC2)c[nH]1)(c1ccc(-n2cccn2)cc1)C(F)(F)F [MK-5046, (2S)-1,1,1-trifluoro-2-[4-(1H-pyrazol-1-yl)phenyl]-3-(4-[[1-(trifluoromethyl)cyclopropyl]methyl]-1H-imidazol-2-yl)propan-2-ol]
[1]; BRS-3/H1299-cells
  greatest [3H]IP-increase in IP-production: 8 fold
[1]; BRS-3/H1299 cells
  EC50: 0.37 ± 0.04 nM
[1]; NCI-H69 cells
  EC50: 3.29 ± 0.54 nM
[1]; NCI-H720 cells
  EC50: 0.14 ± 0.05 nM
[1]; H720 cells, p < 0.05
  decrease in [3H]IP-release at supramaximal concentrations: 28%
[1]; Balb-3T3 BRS-3 transfected
  [3H]IP (Exp/control): 7.50 ± 0.68 Exp/control
[1]; Balb-3T3 BRS-3 transfected, control 2487 ± 185
  [3H]IP (DPM): 18657 ± 1698 DPM
[1]; NCI-H69 (SCLC)
  [3H]IP (Exp/control): 3.38 ± 0.17 Exp/control
[1]; NCI-H69 (SCLC), control 177 ± 27
  [3H]IP (DPM): 597 ± 29 DPM
[1]; NCI-H82 (SCLC)
  [3H]IP (Exp/control): 2.09 ± 0.33 Exp/control
[1]; NCI-H358 (NSCLC)
  [3H]IP (Exp/control): 1.50 ± 0.15 Exp/control
[1]; NCI-H460 (NSCLC)
  [3H]IP (Exp/control): 1.63 ± 0.18 Exp/control
[1]; NCI-H510 (SCLC)
  [3H]IP (Exp/control): 1.12 ± 0.05 Exp/control
[1]; NCI-H520 (NSCLC)
  [3H]IP (Exp/control): 1.84 ± 0.36 Exp/control
[1]; NCI-H720 (carcinoid)
  [3H]IP (Exp/control): 1.64 ± 0.22 Exp/control
[1]; NCI-H727 (carcinoid)
  [3H]IP (Exp/control): 2.59 ± 0.22 Exp/control
[1]; NCI-H727 (carcinoid), control 143 ± 21
  [3H]IP (DPM): 371 ± 32 DPM
[1]; NCI-H1299 BRS-3 transfected
  [3H]IP (Exp/control): 7.63 ± 0.77 Exp/control
[1]; NCI-N417 (SCLC)
  [3H]IP (Exp/control): 4.31 ± 1.03 Exp/control
[1]; NCI-N417 (SCLC), control 660 ± 87
  [3H]IP (DPM): 2850 ± 571 DPM
[1]; NCI-H69 cells, 100 nM MK-5046, control 177 ± 27 dpm
  maximal stimulated [3H]IP value: 834 ± 66 dpm
[1]; NCI-H720 cells, 10 nM MK-5046, control 268 ± 23 dpm
  maximal stimulated [3H]IP value: 375 ± 31 dpm
[1]; hBRS-3-NCI-H1299 cells, 100 nM MK-5046, control 1169 ± 88 dpm
  maximal stimulated [3H]IP value: 10,144 ± 1310 dpm
[2]; Balb-3T3 BRS-3 transfected
  Ca2+ release (% over basal): 7.43 ± 1.22 % over basal
[2]; NCI-H69 (SCLC)
  Ca2+ release (% over basal): 3.09 ± 0.67 % over basal
[2]; NCI-H82 (SCLC)
  Ca2+ release (% over basal): 9.00 ± 1.11 % over basal
[2]; NCI-H358 (NSCLC)
  Ca2+ release (% over basal): 1.65 ± 0.43 % over basal
[2]; NCI-H460 (NSCLC)
  Ca2+ release (% over basal): 5.77 ± 1.41 % over basal
[2]; NCI-H510 (SCLC)
  Ca2+ release (% over basal): 2.94 ± 0.52 % over basal
[2]; NCI-H520 (NSCLC)
  Ca2+ release (% over basal): 2.60 ± 0.40 % over basal
[2]; NCI-H720 (carcinoid)
  Ca2+ release (% over basal): 2.40 ± 0.28 % over basal
[2]; NCI-H727 (carcinoid)
  Ca2+ release (% over basal): 6.26 ± 1.43 % over basal
[2]; NCI-H1299 BRS-3 transfected
  Ca2+ release (% over basal): 8.04 ± 0.55 % over basal
[2]; NCI-N417 (SCLC)
  Ca2+ release (% over basal): 4.40 ± 0.62 % over basal
[3]; BRS-3/H1299-transfected-cells
  dose-response curve shape, p42/44 phosphorylation: monophasic
[3]; BRS-3/H1299-cells
  EC50: 1.9 ± 0.16 nM
[3]; NCI-H69
  EC50: 0.12 ± 0.01 nM
[3]; NCI-H82
  EC50: 1.08 ± 0.16 nM
[3]; NCI-H720
  EC50: 1.14 ± 0.57 nM
[3]; NCI-H727
  EC50: 0.02 ± 0.01 nM
[3]; NCI-N417
  EC50: 0.02 ± 0.01 nM
[3]; Balb-3T3 BRS-3 transfected
  P-p42/44 (Exp/control): 1.85 ± 0.21 Exp/control
[3]; NCI-H69 (SCLC)
  P-p42/44 (Exp/control): 1.95 ± 0.18 Exp/control
[3]; NCI-H82 (SCLC)
  P-p42/44 (Exp/control): 1.50 ± 0.10 Exp/control
[3]; NCI-H358 (NSCLC)
  P-p42/44 (Exp/control): 2.33 ± 0.34 Exp/control
[3]; NCI-H460 (NSCLC)
  P-p42/44 (Exp/control): 1.07 ± 0.16 Exp/control
[3]; NCI-H510 (SCLC)
  P-p42/44 (Exp/control): 2.22 ± 0.13 Exp/control
[3]; NCI-H520 (NSCLC)
  P-p42/44 (Exp/control): 1.88 ± 0.24 Exp/control
[3]; NCI-H720 (carcinoid)
  P-p42/44 (Exp/control): 2.53 ± 0.39 Exp/control
[3]; NCI-H727 (carcinoid)
  P-p42/44 (Exp/control): 2.41 ± 0.34 Exp/control
[3]; NCI-H1299 BRS-3 transfected
  P-p42/44 (Exp/control): 1.54 ± 0.28 Exp/control
[3]; NCI-N417 (SCLC)
  P-p42/44 (Exp/control): 1.64 ± 0.25 Exp/control
[3]; NCI-H82-cells, p < 0.002
  decrease in p42/44-phosphorylation at supramaximal concentrations: 50 ± 7%
[3]; NCI-H727-cells, p < 0.0001
  decrease in p42/44-phosphorylation at supramaximal concentrations: 49 ± 9%
[3]; NCI-N417, p < 0.0001
  decrease in p42/44-phosphorylation at supramaximal concentrations: 29 ± 6%
[3]; all the cells (NCI-H727, NCI-H720, NCI-H69, NCI-H82, NCI-N417) except BRS-3/H1299
  dose-response curve shape, p42/44 phosphorylation: biphasic
[3]; read-out: maximal stimulation of p42/44-MAPK phosphorylation
  Emax at 1 µM: 96 ± 7%
[4]; NCI-H69, read-out: EC50, [3H]-Thymidine-uptake
  EC50: 0.27 ± 0.06 nM
[4]; NCI-H358, read-out: EC50, [3H]-Thymidine-uptake
  EC50: 0.52 ± 0.07 nM
[4]; NCI-H727, read-out: EC50, [3H]-Thymidine-uptake
  EC50: 0.31 ± 0.06 nM
[4]; MK-5046 10 nM, NCI-H69
  [3H]-Thymidine Incorporation (Exp/control): 1.36 ± 0.09 Exp/control
[4]; MK-5046 10 nM, NCI-H82
  [3H]-Thymidine Incorporation (Exp/control): 1.08 ± 0.08 Exp/control
[4]; MK-5046 10 nM, NCI-H358
  [3H]-Thymidine Incorporation (Exp/control): 1.20 ± 0.05 Exp/control
[4]; MK-5046 10 nM, NCI-H460
  [3H]-Thymidine Incorporation (Exp/control): 1.29 ± 0.07 Exp/control
[4]; MK-5046 10 nM, NCI-H510
  [3H]-Thymidine Incorporation (Exp/control): 1.39 ± 0.04 Exp/control
[4]; MK-5046 10 nM, NCI-H520
  [3H]-Thymidine Incorporation (Exp/control): 1.27 ± 0.10 Exp/control
[4]; MK-5046 10 nM, NCI-H720
  [3H]-Thymidine Incorporation (Exp/control): 1.15 ± 0.04 Exp/control
[4]; MK-5046 10 nM, NCI-H727
  [3H]-Thymidine Incorporation (Exp/control): 1.41 ± 0.18 Exp/control
[4]; MK-5046 10 nM, NCI-H1299 BRS-3-transfected
  [3H]-Thymidine Incorporation (Exp/control): 1.41 ± 0.06 Exp/control
[4]; MK-5046 10 nM, NCI-N417
  [3H]-Thymidine Incorporation (Exp/control): 1.29 ± 0.08 Exp/control
[4]; MK-5046 1 μM, NCI-H69
  [3H]-Thymidine Incorporation (Exp/control): 0.76 ± 0.07 Exp/control
[4]; MK-5046 1 μM, NCI-H82
  [3H]-Thymidine Incorporation (Exp/control): 1.17 ± 0.05 Exp/control
[4]; MK-5046 1 μM, NCI-H358
  [3H]-Thymidine Incorporation (Exp/control): 1.15 ± 0.06 Exp/control
[4]; MK-5046 1 μM, NCI-H460
  [3H]-Thymidine Incorporation (Exp/control): 1.07 ± 0.07 Exp/control
[4]; MK-5046 1 μM, NCI-H510
  [3H]-Thymidine Incorporation (Exp/control): 1.36 ± 0.10 Exp/control
[4]; MK-5046 1 μM, NCI-H520
  [3H]-Thymidine Incorporation (Exp/control): 1.07 ± 0.14 Exp/control
[4]; MK-5046 1 μM, NCI-H720
  [3H]-Thymidine Incorporation (Exp/control): 1.17 ± 0.03 Exp/control
[4]; MK-5046 1 μM, NCI-H727
  [3H]-Thymidine Incorporation (Exp/control): 1.47 ± 0.16 Exp/control
[4]; MK-5046 1 μM, NCI-H1299 BRS-3-transfected
  [3H]-Thymidine Incorporation (Exp/control): 1.27 ± 0.11 Exp/control
[4]; MK-5046 1 μM, NCI-N417
  [3H]-Thymidine Incorporation (Exp/control): 1.26 ± 0.07 Exp/control
[4]; NCI-H69-cells
  decrease in [3H]-Thymidine-uptake at supramaximal concentrations: 87%
[4]; NCI-H358-cells
  decrease in [3H]-Thymidine-uptake at supramaximal concentrations: 23%
[5]; MK-5046 10 nM
  [3H]-Thymidine Incorporation (Exp/control): 1.00 ± 0.04 Exp/control
[5]; MK-5046 1 μM
  [3H]-Thymidine Incorporation (Exp/control): 1.24 ± 0.07 Exp/control
